Experimental data: US12595357B2, “Black knot melanin—a super-additive with UV absorbing and antioxidant properties” (The University of Akron, priority 2021, dated 2026)

Assay: DPPH assay for antioxidant activity (radical scavenging)
Type: biochemical
Details: 0.1 mM DPPH solution, absorbance at 517 nm; masses greater than or equal to 40 μg
Procedure: 2,2-diphenyl-1-(2,4,6-trinitrophenyl) hydrazyl (DPPH) radical scavenging activity of BKF melanin was measured according to the procedure described in the literature. […] Afterwards, the UV-vis absorbance spectra were collected to monitor the decrease in the absorbance at 517 nm due to quenching of DPPH radical by the BKF melanin. Similar volumes of BKF melanin solution were added to pure ethanol (instead of 0.1 mM DPPH solution) to measure the absorbance of BKF melanin itself. Afterwards, the scavenging activity (or antioxidant activity) [I] was calculated using Equation 1, where Ac is the absorbance of DPPH solution without any BKF melanin, Ai is the absorbance of DPPH solution mixed with varying amounts of BKF melanin, and Aj is the absorbance of BKF melanin itself without DPPH solution. […]
The antioxidant activity of BKF melanin was investigated using the DPPH assay described above. The scavenging activity was determined by monitoring the decrease in absorbance of DPPH at 517 nm, since the DPPH is reduced through an electron transfer from the antioxidant material. […] As the ascorbic acid concentration increases from 0 to 60 μg, the absorbance at 517 nm decreases along with visual change in color from purple to yellow. The antioxidant activity (%) calculated using Equation 1 is plotted as a function of ascorbic acid mass in FIG. 3B. […]

For `O=C1O[C@H]([C@@H](O)CO)C(O)=C1O` [ascorbic acid], the “antioxidant activity (%), saturated value” was roughly 90%.
